ChEMBL document CHEMBL1201862, “PubChem BioAssay data set” (2004)
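Briefly, cells in 96-well plates were exposed to five compound concentrations for 48 h, and endpoints were estimated by linear interpolation. The concentration for 50% growth inhibition is given as GI50.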 Activity calls are given as the source filed them. Cut-off read from the data, not from the text of the source: active = GI50 up to about 1.1 µM and inactive = higher.

Experiments:
Test in all cases: NCI tumour cell line growth inhibition, 48 h
[1] = tested on: CCRF-CEM
[2] = tested on: SN12C
[3] = tested on: OVCAR-5
[4] = tested on: KM12
[5] = tested on: COLO 205
[6] = tested on: SK-MEL-2
[7] = tested on: EKVX
[8] = tested on: HL-60
[9] = tested on: MDA-N
[10] = tested on: SNB-19
[11] = tested on: HCT-15
[12] = tested on: UACC-62
[13] = tested on: MCF7
[14] = tested on: NCI-H460
[15] = tested on: OVCAR-8
[16] = tested on: CAKI-1
[17] = tested on: RXF 393
[18] = tested on: IGROV-1
[19] = tested on: U-251
[20] = tested on: HOP-62
[21] = tested on: Hs-578T
[22] = tested on: SF-539
[23] = tested on: PC-3
[24] = tested on: MDA-MB-435
[25] = tested on: DU-145
[26] = tested on: A549
[27] = tested on: HT-29
[28] = tested on: HCT-116
[29] = tested on: NCI-H23
[30] = tested on: NCI/ADR-RES
[31] = tested on: OVCAR-3
[32] = tested on: MDA-MB-231
[33] = tested on: M14
[34] = tested on: NCI-H226
[35] = tested on: ACHN
[36] = tested on: LOX IMVI
[37] = tested on: SF-295
[38] = tested on: SR
[39] = tested on: SK-MEL-5
[40] = tested on: OVCAR-4
[41] = tested on: MOLT-4
[42] = tested on: T47D
[43] = tested on: UACC-257
[44] = tested on: HOP-92
[45] = tested on: NCI-H522
[46] = tested on: SF-268
[47] = tested on: BT-549
[48] = tested on: SK-OV-3
[49] = tested on: SW-620
[50] = tested on: RPMI-8226
[51] = tested on: SK-MEL-28
[52] = tested on: K562
[53] = tested on: Malme-3M
[54] = tested on: SNB-75
[55] = tested on: A498
[56] = tested on: TK-10
[57] = tested on: 786-0
[58] = tested on: UO-31
[59] = tested on: HCC 2998

Measured: GI50

Cc1cc(N2CCN(C)CC2)n2nc(-c3ccc(Cl)cc3)nc2n1
inactive: [1] 11.5 µM | [2] 54.6 µM | [3] > 100 µM | [4] > 100 µM | [5] 81.7 µM | [6] 74.8 µM | [7] 80.5 µM | [8] 27.3 µM | [9] 92.9 µM | [10] > 100 µM | [12] 75.3 µM | [13] > 100 µM | [14] 50.7 µM | [15] > 100 µM | [16] > 100 µM | [17] 31.5 µM | [18] > 100 µM | [19] > 100 µM | [20] > 100 µM | [21] > 100 µM | [22] 75 µM | [23] > 100 µM | [24] > 100 µM | [25] > 100 µM | [26] > 100 µM | [27] 69.5 µM | [28] 61.7 µM | [29] > 100 µM | [30] 90.6 µM | [31] > 100 µM | [32] > 100 µM | [33] > 100 µM | [34] > 100 µM | [35] 50.6 µM | [36] 61.1 µM | [37] 91.2 µM | [38] 17.7 µM | [39] 50.2 µM | [40] > 100 µM | [41] 34.8 µM | [42] > 100 µM | [43] 77.6 µM | [44] > 100 µM | [45] 84.7 µM | [46] > 100 µM | [47] 99.1 µM | [48] > 100 µM | [49] > 100 µM | [50] 56.5 µM | [51] 91.8 µM | [52] 60.4 µM | [53] > 100 µM | [54] 66.7 µM | [55] 43.3 µM | [56] 68.1 µM | [57] 50.7 µM
> 100 µM: [11]

O=C(CSc1nc2ccccc2c2ccccc12)c1ccccc1
active: [21] 0.0226 µM
> 100 µM: [11]
inactive: [2] > 100 µM | [3] > 100 µM | [4] > 100 µM | [58] > 100 µM | [5] > 100 µM | [6] > 100 µM | [7] > 100 µM | [8] > 100 µM | [9] > 100 µM | [10] > 100 µM | [12] > 100 µM | [13] > 100 µM | [14] > 100 µM | [15] > 100 µM | [16] > 100 µM | [17] > 100 µM | [18] > 100 µM | [19] > 100 µM | [20] > 100 µM | [22] > 100 µM | [23] > 100 µM | [24] > 100 µM | [25] > 100 µM | [26] > 100 µM | [27] > 100 µM | [28] > 100 µM | [29] > 100 µM | [30] > 100 µM | [31] > 100 µM | [32] > 100 µM | [33] > 100 µM | [34] > 100 µM | [35] > 100 µM | [36] > 100 µM | [37] > 100 µM | [38] > 100 µM | [39] > 100 µM | [40] > 100 µM | [41] > 100 µM | [42] > 100 µM | [43] > 100 µM | [44] > 100 µM | [45] > 100 µM | [46] > 100 µM | [47] > 100 µM | [49] > 100 µM | [50] > 100 µM | [51] > 100 µM | [52] > 100 µM | [53] > 100 µM | [54] 13.8 µM | [55] > 100 µM | [56] > 100 µM | [57] > 100 µM

CCOC(=O)C1CCC(=O)N1C(=O)c1cccc(Cl)c1 (stereo not drawn)
inactive: [1] > 100 µM | [2] > 100 µM | [3] > 100 µM | [4] > 100 µM | [58] > 100 µM | [7] > 100 µM | [8] > 100 µM | [9] > 100 µM | [10] > 100 µM | [12] 14.8 µM | [13] > 100 µM | [14] > 100 µM | [15] > 100 µM | [16] > 100 µM | [17] > 100 µM | [18] > 100 µM | [19] > 100 µM | [20] > 100 µM | [21] > 100 µM | [22] > 100 µM | [23] > 100 µM | [24] > 100 µM | [25] > 100 µM | [26] > 100 µM | [27] > 100 µM | [28] > 100 µM | [29] > 100 µM | [30] > 100 µM | [31] > 100 µM | [32] > 100 µM | [33] > 100 µM | [34] > 100 µM | [35] > 100 µM | [36] > 100 µM | [37] > 100 µM | [38] > 100 µM | [39] > 100 µM | [41] > 100 µM | [42] > 100 µM | [43] > 100 µM | [44] > 100 µM | [45] > 100 µM | [46] > 100 µM | [47] > 100 µM | [49] > 100 µM | [50] > 100 µM | [51] > 100 µM | [52] > 100 µM | [53] > 100 µM | [54] > 100 µM | [55] > 100 µM | [56] > 100 µM | [57] > 100 µM
> 100 µM: [11]

Cc1ccc2c(c1)C(=O)/C(=N/Nc1ccc(Cl)cc1)CCO2
60 µM: [11]
inactive: [1] 46.7 µM | [2] > 100 µM | [3] 69.7 µM | [4] 75 µM | [58] > 100 µM | [5] 63.5 µM | [6] 21.2 µM | [7] > 100 µM | [8] 38.9 µM | [9] 65.3 µM | [10] > 100 µM | [12] 50.1 µM | [13] 58.7 µM | [14] 92.9 µM | [15] > 100 µM | [16] > 100 µM | [18] > 100 µM | [19] > 100 µM | [20] > 100 µM | [21] 35.4 µM | [22] > 100 µM | [23] 54.5 µM | [24] 71 µM | [25] > 100 µM | [26] 94.6 µM | [27] 26.4 µM | [28] 50.7 µM | [29] > 100 µM | [30] > 100 µM | [31] > 100 µM | [32] > 100 µM | [33] 44 µM | [34] > 100 µM | [35] > 100 µM | [36] 35.2 µM | [37] 24.3 µM | [38] 44.8 µM | [39] 23.3 µM | [40] 80.4 µM | [41] 71.3 µM | [42] 13.3 µM | [43] > 100 µM | [44] 72.4 µM | [59] 54.1 µM | [45] 56.1 µM | [46] > 100 µM | [47] > 100 µM | [48] > 100 µM | [49] > 100 µM | [50] 36.3 µM | [51] > 100 µM | [52] 28 µM | [53] 46.7 µM | [54] > 100 µM | [55] > 100 µM | [56] > 100 µM | [57] 37.1 µM

CC(=O)OCCOc1cc2c([nH]c3ccccc32)c(C)c2cccc1-2
2.94 µM: [11]
inactive: [1] 3.38 µM | [2] 3.01 µM | [3] 2.97 µM | [4] 2.34 µM | [58] 1.75 µM | [5] 1.7 µM | [6] 2.21 µM | [7] 1.86 µM | [8] 3.05 µM | [9] 3.16 µM | [10] 3.3 µM | [12] 2.39 µM | [13] 2.94 µM | [14] 2.59 µM | [15] 2.59 µM | [16] 2.12 µM | [17] 1.95 µM | [18] 1.77 µM | [19] 1.69 µM | [20] 4.6 µM | [21] 3.47 µM | [22] 1.91 µM | [23] 1.76 µM | [24] 2.29 µM | [25] 4.16 µM | [26] 3.85 µM | [27] 3.78 µM | [28] 3.3 µM | [29] 1.94 µM | [30] 3.53 µM | [31] 2.01 µM | [32] 1.66 µM | [33] 2.48 µM | [34] 10.3 µM | [35] 1.75 µM | [36] 2.61 µM | [37] 3.28 µM | [38] 2.92 µM | [39] 2.77 µM | [40] 1.77 µM | [41] 3.33 µM | [42] 1.92 µM | [43] 1.91 µM | [44] 1.86 µM | [45] 1.84 µM | [46] 2.47 µM | [47] 2.75 µM | [48] 4.3 µM | [49] 2.7 µM | [50] 2.43 µM | [51] 2.58 µM | [52] 1.36 µM | [53] 2.11 µM | [54] 1.71 µM | [55] 8.93 µM | [56] 2.2 µM | [57] 2.84 µM
